From patent US4880791A, “Combination product composed of xanthine derivatives and O-acetylsalicylic acid or its pharmacologically tolerated salts, and its use” (priority 1984, dated 1989)

Legend:
[1] = customary doses; cited from earlier work
[2] = tested on: human blood platelets; details: cited from earlier work
[3] = tested on: tendency to thrombosis in arthritic rat; test: laser-induced tendency to thrombosis in arthritic rats; format: in vivo; details: oral 21 days
Method: (§1) The hemorheological, antithrombotic, antiaggregatory and antiinflammatory effects of the combinations according to the invention were investigated after oral administration for 21 days in the pathological model of adjuvant arthritis (induced with Mycobacterium butyricum) is the rat by the method of Clincal Hemorheology 3 (1983) 469-480, and were compared with those of the appropriate individual substances. Blood was taken from the thoracic aorta 1 hour after the last administration of substance. All the details of the determination of the hemorheological effect were as described in Clinical Hemorheology 4 (1984) 263-273. The erythocyte deformability was quantitatively determined in a filtrometer (Myrenne MF 4, Roetgen, Germany) by evaluation of the initial gradient of the flow curve.
The antithrombotic effect was measured using the laser model as described above.

[4] = tested on: laser-induced thrombosis in the arterioles and venules of the rat mesentery; test: laser-induced thrombosis in arterioles of the rat mesentery; format: in vivo, rat (female Sprague-Dawley); details: for Changes from controls, % / Changes from controls, absolute / Number of shots: single substance
Method: The evaluation was carried out by analysis by vital microscopy (Nature, 218 (1968) 887 and Haemostasis 13 (1983) 61 and IRCS Med. Sci. 12 (1984) 91).
The test substances were administered in 0.9% sodium chloride solution (which contained 1% carboxymethylcellulose (Serva, Heidelberg)) either orally, intraperitoneally or intravenously. Control animals were treated in the corresponding manner but without the test substances. The experimental animals used were male or female Sprague-Dawley or Wistar rats.
The animals which were to be investigated underwent s.c. premedication with 0.1 mg of atropine sulfate in solution and were anesthetized with 100 mg of ketamine hydrochloride and 4 mg of xylazine per kg of body weight i.p. The investigation made use of arterioles and venules of the mesentery, which was coated with degassed liquid paraffin, having a diameter of about 13 μm. The beam of a 4 W argon laser (supplied by Spectra Physics, Darmstadt) was introduced coaxially, by means of a beam adaptation and adjustment system (supplied by BTG, Munich), into the inverted optical path of a microscope (ICM 405, LD-Epipland 40/0.60; supplied by Zeiss, Oberkochen). The wavelength used was 514.5 nm, with an energy above the objective of 30.5 mW. The exposure time per single shot was 1/15 sec. All the measuring operations were recorded by video camera (Trinicon tube, Sony, Cologne) and stored in a recorder (Sony, U-matic 3/4"). The test substances were administered in various doses to the experimental animals, orally one hour, and on i.v. administration 10 min., before the start of the experiment, control animals receiving the same amount of placebo.
The number of shots needed to induce a defined thrombus is counted.
The results of the experiment were subjected to statistical analysis using the .chi.^2 test (L. Cavalli-Sforza, Biometrie (Biostatistics), Stuttgart, 1969, pages 49 et seq.). […]

[5] = tested on: erythrocyte filterability; test: erythrocyte filterability in adjuvant arthritis rats; format: in vivo, rat; details: oral 21 days
Method: as §1

[6] = tested on: rat aortas; details: treatment of the rats with acetylsalicylic acid; cited from earlier work
[7] = tested on: induced platelet aggregation; test: collagen-induced platelet aggregation in arthritic rats; format: in vivo, rat; details: oral 21 days
Method: as §1
The measurements of platelet aggregation were carried out as described above in detail. However, instead of arachidonic acid 0.04 mg of collagen was used to induce platelet aggregation in 1 ml of platelet-rich plasma (PA II aggregometer from Myrenne, Roetgen).

[8] = tested on: cyclooxygenase; details: cited from earlier work
[9] = tested on: mucosa of the glandular stomach; test: test of gastric tolerance (ulcerogenic effect); format: in vivo, rat (male Sprague-Dawley); details: for Number of animals with ulcers: 10 animals
Method: 24 hours after the last medication, the stomach was cut open along the lesser curvature, cleaned under running water, and inspected for mucosal lesions. All lesions visible on macroscopic inspection of the mucosa of the glandular stomach were regarded as ulcers.

[10] = tested on: vascular cyclooxygenase; details: cited from earlier work
[11] = tested on: adjuvant arthritis (Mycobacterium butyricum) in the rat; test: antiinflammatory effect in adjuvant arthritis (paw edema, necrosis index); format: in vivo
Method: as §1
The antiflammatory effect was quantitatively measured, as quoted above, using the volume of the edema of the paw and using the standard necrosis index.

[12] = Table 1b, 1 mg/kg acetylsalicylic acid without pentoxifylline

## CC(=O)Oc1ccccc1C(=O)O [Acetylsalicylic acid, O-acetylsalicylic acid]
[1]
  undesired side effects: asthma, allergic urticaria, analgesic nephropathy and peptic ulcers
[2]
  aggregation of human blood platelets: inhibitor of the aggregation
[3]; 10 mg, healthy = 100%, untreated arthritic 46%
  tendency to thrombosis (number of shots): 47%
[3]; 180 mg
  tendency to thrombosis (number of shots): 91%
[4]; 1 mg/kg oral
  Changes from controls, %: -13%
  Changes from controls, absolute: -0,35
  Number of shots: 1,88
[4]; 5 mg/kg oral
  Changes from controls, %: -18%
  Changes from controls, absolute: -0,38
  Number of shots: 1,79
[4]; 10 mg/kg oral
  Changes from controls, %: 35%
  Changes from controls, absolute: 0,75
  Number of shots: 2,92
[4]; 30 mg/kg oral
  Changes from controls, %: 48%
  Changes from controls, absolute: 1,04
  Number of shots: 3,21
[4]; [12]
  % change from controls: -13%
  -x (number of shots): 1,90
[4]; oral dose 10 mg/kg
  effect in laser-induced thrombosis: significant effect
[4]; single oral dose 5 mg/kg
  effect in laser-induced thrombosis: not significant
[5]; 10 mg, healthy = 100%, untreated arthritic 59%
  erythrocyte filterability: 63%
[5]; 180 mg
  erythrocyte filterability: 68%
[5]
  erythrocyte filterability in arthritic rats (in words): can be increased again
[6]
  release of the substance having antiaggregatory activity stimulated by pentoxifylline: can be suppressed
[7]; 10 mg, untreated arthritic = 100%, healthy 0%
  induced platelet aggregation: 62%
[7]; 180 mg
  induced platelet aggregation: 35%
[8]
  cyclooxygenase localized in the blood platelets: inhibits the enzyme cyclooxygenase
[9]; acetylsalicylic acid 25 mg/kg oral
  Number of animals with ulcers: 5
[9]; acetylsalicylic acid 50 mg/kg oral
  Number of animals with ulcers: 7
[9]; acetylsalicylic acid 100 mg/kg oral
  Number of animals with ulcers: 9
[9]; acetylsalicylic acid 1,25 mg/kg oral
  Number of animals with ulcers: 1
[9]; acetylsalicylic acid 12,50 mg/kg oral
  Number of animals with ulcers: 2
[9]; acetylsalicylic acid after pretreatment with pentoxifylline
  gastric ulcerogenicity: unaffected by pretreatment with pentoxifylline
[10]
  inhibition of vascular cyclooxygenase: found only at higher doses
[11]; 10 mg
  Percentage improvement, necrosis index: 8%
  Percentage improvement, volume of paw edema, left paw: 2%
  Percentage improvement, volume of paw edema, right paw: 3%
[11]; 180 mg
  Percentage improvement, necrosis index: 28%
  Percentage improvement, volume of paw edema, left paw: 28%
  Percentage improvement, volume of paw edema, right paw: 26%
